Reference: patent US20250288567A1, “PHARMACEUTICAL COMPOSITION FOR TREATING PRESBYOPIA” (Sight Health Hong Kong Biotechnology Co., Limited, priority 2024, published 2025)
Where “and” joins values, the source holds several entries; their conditions need not be identical. Identical values can stand only once.

Assays:
presbyopia patients [1] = test: Non-randomized clinical case study of Huperzine A eye drops: uncorrected near visual acuity (UNVA40, UNVA66) before and 30 minutes after; assay type: in vivo, human
Procedure: (§1) A non-randomized clinical case study involving 40 eyes of 20 presbyopia patients with uncorrected distance visual acuity (UDVA) of 0.4-1.0 and uncorrected near visual acuity (UNVA) of less than Jaeger1, aged 33-70 years is conducted. The patients are randomly divided into 3 groups, using eye drops with concentration of Huperzine A ranging from 0.1%-0.3% for clinical trials. Data are collected on changes in visual acuity, including UDVA, UNVA40, UNVA66, pupil diameter changes, and non-contact intraocular pressure, before and 30 minutes after Huperzine A eye drops. The data are grouped according to drug concentration and age and are analyzed. The discomfort symptoms appeared half an hour after using the eye drops are recorded, and the time when the relevant symptoms disappeared is obtained during the telephone interview in the following 3 days. A detailed description of the case study is further illustrated below.
The clinical study of the present invention is conducted in March 2022 at a university hospital. Individuals over the age of 30 who feel their near vision has decreased are recruited and voluntarily participate in the test through a long-term open recruitment process. Inclusion criteria include best corrected distance visual acuity of 1.0, 40 cm reading visual acuity (UNVA40) or 66 cm computer visual acuity (UNVA66) lower than the Jaeger score J1, normal intraocular pressure, no history of retinal-related medical conditions, good general health, absence of systemic symptoms, and no rheumatic or systemic immune diseases.
Participants first complete a health declaration questionnaire with assistance from medical staff. They then measure their blood pressure and heart rate before undergoing computer optometry, as well as examinations for best corrected distance visual acuity and uncorrected distance visual acuity. They use the Jaeger score table to assess uncorrected reading visual acuity at 40 cm (UNVA40) and 66 cm (UNVA66) for computer visual acuity. Additionally, they have non-contact intraocular pressure measurements, pupil diameter assessments under room lighting, and a slit lamp examination by an experienced clinical ophthalmologist to rule out ocular diseases. Fundus photography is also performed.
Participants who meet the screening criteria are randomly divided into […]. One drop of 0.1%-0.3% Huperzine A eye drops is administered in each eye. After 30 minutes, the best corrected distance visual acuity, uncorrected distance visual acuity at 40 cm (UNVA40), and 66 cm computer visual acuity (UNVA66) are measured again, along with non-contact intraocular pressure and pupil diameter under room lighting.
The drug used in this present test is Huperzine A at a range of 0.1%-0.3% concentration, using standard ophthalmic dropper bottles, each yielding 40 μL drops and each drop effectively dispenses 0.1%-0.3%.
The collected data are organized so that J1+ is recorded as 0 on the Jaeger scale, J1 as 1, J2 as 2, and so forth.
The patients are grouped by age: 40 years old or below (2 people, 4 eyes), 41-50 years old (9 people, 18 eyes), 51-60 years old (6 people, 12 eyes), 61-70 years old (2 people, 4 eyes), and over 70 years old (1 people, 2 eyes).

[2] = system: patients with astigmatism (UDVA less than 0.8); test: Uncorrected distance visual acuity (UDVA) of eyes with astigmatism after Huperzine A eye drops; assay type: in vivo, human; conditions: 2 patients, 4 eyes with astigmatism
Procedure: as §1
Participants first complete a health declaration questionnaire with assistance from medical staff. They then measure their blood pressure and heart rate before undergoing computer optometry, as well as examinations for best corrected distance visual acuity and uncorrected distance visual acuity. They use the Jaeger score table to assess uncorrected reading visual acuity at 40 cm (UNVA40) and 66 cm (UNVA66) for computer visual acuity. […]

presbyopia patients [3] = test: Side effects reported by patients after Huperzine A eye drops; conditions: human, in vivo
Procedure: as §1
The duration of these side effects varies from 2 to 5 hours and gradually relieves over time. Additionally, some patients report an increase in tear secretion after using the eye drops.

presbyopia patients [4] = test: Visual acuity before and after treatment with Huperzine A, TRAC1 and their combination (three patients); assay type: in vivo, human; set-up: scale not given here
Procedure: This hypothesis is tested by using 0.05%-0.3% Huperzine A and 0.05%-0.3% TRAC1. Three patients are treated with each drug, as well as the combination of both drugs.

[5] = Group 1, 40 years old or below, 2 people 4 eyes
[6] = Group 2, 41-50 years old, 9 people 18 eyes
[7] = Group 3, 51-60 years old, 6 people 12 eyes
[8] = Group 4, 61-70 years old, 2 people 4 eyes
[9] = Group 5, over 70 years old, 1 person 2 eyes
[10] = all patients, 20 patients 40 eyes, 0.1%-0.3% eye drops, 30 minutes after
[11] = Patient 1, Right eye (OD), Jaeger score, 0.05%-0.3%

## C/C=C1\[C@H]2C=C(C)C[C@]1(N)c1ccc(=O)[nH]c1C2 [Huperzine A]
Presbyopia patients [1]; [5]
  N40 improved: 2.25 J
  N66 improved: 1.50 J
  UNVA40 after treatment (Near 40, After): 1.00 J
  UNVA66 after treatment (Near 66, After): 2.75 J
Presbyopia patients [1]; [6]
  N40 improved: 3.05 J and 3.06 J
  N66 improved: 1.72 J
  UNVA40 after treatment (Near 40, After): 1.89 J
  UNVA66 after treatment (Near 66, After): 1.61 J
Presbyopia patients [1]; [7]
  N40 improved: 1.92 J
  N66 improved: 2.33 J
  UNVA40 after treatment (Near 40, After): 3.75 J
  UNVA66 after treatment (Near 66, After): 3.67 J
Presbyopia patients [1]; [8]
  N40 improved: 3.75 J
  N66 improved: 2.00 J
  UNVA40 after treatment (Near 40, After): 2.25 J
  UNVA66 after treatment (Near 66, After): 3.00 J
Presbyopia patients [1]; [9]
  N40 improved: 6.00 J
  N66 improved: 4.50 J
  UNVA40 after treatment (Near 40, After): 7.00 J
  UNVA66 after treatment (Near 66, After): 4.00 J
Presbyopia patients [1]; [10]
  N40 improved (average improvement of UNVA40): 2.85 J
  N66 improved (average improvement of UNVA66): 2.05 J
Presbyopia patients [1]; all patients, 20 patients 40 eyes, 0.1%-0.3% eye drops, 30 minutes after, Jaeger score
  UNVA66 after treatment (Near 66, After): 2.60 J
Presbyopia patients [1]; all patients, 20 patients 40 eyes, 0.1%-0.3% eye drops, 30 minutes after, Jaeger score, J1+ = 0
  UNVA40 after treatment (Near 40, After): 2.65 J
Presbyopia patients [1]; human, in vivo
  effect on near vision, 41-50-year-old group compared with 51-60-year-old group: more significant effect on the former group
[2]
  UDVA increase after Huperzine A eye drops: 0.2 and 0.1
Presbyopia patients [3]
  lacrimation (side effect): 6%
Presbyopia patients [4]; Patient 1, Left eye (OS)
  Near 40 cm, After treatment: 3
  Near 40 cm, Improvement: 2
  Near 66 cm, After treatment: 2
  Near 66 cm, Improvement: 2
Presbyopia patients [4]; Patient 1, Right eye (OD)
  Near 40 cm, Improvement: 3
  Near 66 cm, After treatment: 2
  Near 66 cm, Improvement: 2
Presbyopia patients [4]; [11]
  Near 40 cm, After treatment: 3
Presbyopia patients [4]; Patient 2, Left eye (OS)
  Near 40 cm, After treatment: 4
  Near 40 cm, Improvement: 5
  Near 66 cm, After treatment: 2
  Near 66 cm, Improvement: 4
Presbyopia patients [4]; Patient 2, Right eye (OD)
  Near 40 cm, After treatment: 4
  Near 40 cm, Improvement: 6
  Near 66 cm, After treatment: 3
  Near 66 cm, Improvement: 3
Presbyopia patients [4]; Patient 3, Left eye (OS)
  Near 40 cm, After treatment: 3
  Near 40 cm, Improvement: 8
  Near 66 cm, After treatment: 3
  Near 66 cm, Improvement: 6
Presbyopia patients [4]; Patient 3, Right eye (OD)
  Near 40 cm, After treatment: 2
  Near 40 cm, Improvement: 6
  Near 66 cm, After treatment: 2
  Near 66 cm, Improvement: 5

## Nc1c2c(nc3ccccc13)CCCC2 [Tacrine]
Presbyopia patients [4]; Patient 1, Left eye (OS)
  Near 40 cm, After treatment: 3
  Near 40 cm, Improvement: 2
  Near 66 cm, After treatment: 2
  Near 66 cm, Improvement: 2
Presbyopia patients [4]; Patient 1, Right eye (OD)
  Near 40 cm, Improvement: 3
  Near 66 cm, After treatment: 2
  Near 66 cm, Improvement: 2
Presbyopia patients [4]; [11]
  Near 40 cm, After treatment: 3
Presbyopia patients [4]; Patient 2, Left eye (OS)
  Near 40 cm, After treatment: 4
  Near 40 cm, Improvement: 5
  Near 66 cm, After treatment: 2
  Near 66 cm, Improvement: 4
Presbyopia patients [4]; Patient 2, Right eye (OD)
  Near 40 cm, After treatment: 4
  Near 40 cm, Improvement: 6
  Near 66 cm, After treatment: 3
  Near 66 cm, Improvement: 3
Presbyopia patients [4]; Patient 3, Left eye (OS)
  Near 40 cm, After treatment: 3
  Near 40 cm, Improvement: 8
  Near 66 cm, After treatment: 3
  Near 66 cm, Improvement: 6
Presbyopia patients [4]; Patient 3, Right eye (OD)
  Near 40 cm, After treatment: 2
  Near 40 cm, Improvement: 6
  Near 66 cm, After treatment: 2
  Near 66 cm, Improvement: 5
